Substitutions are numbered along the chain they refer to. “Also recorded” adds a separate entry of the source.
Key:
5-HT3 (h) = 5-HT3 (h) (Homo sapiens, UniProt P46098); experiment: biochemical; settings: read-out: % Inhibition of Control Specific Binding
TIF1A = biological target: T1, TIF1A (Homo sapiens, UniProt O15164); type: binding
T1 construct: Human BRDs were subcloned into bacteria-expressing vectors; made in house; host or cells: bacteria
T1 sequence (O15164 899-1004 limits assumed): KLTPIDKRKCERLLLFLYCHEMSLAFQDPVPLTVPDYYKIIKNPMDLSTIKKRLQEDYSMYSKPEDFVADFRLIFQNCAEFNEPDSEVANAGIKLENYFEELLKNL

V1a (h) = V1a (h) (Homo sapiens, UniProt P37288); experiment: biochemical; settings: read-out: % Inhibition of Control Specific Binding
[1] = test system: K562, KASUMI-1, MV4;11, and OCI-AML3; type: cell-based, human
A1 (h) = A1 (h) (Homo sapiens, UniProt P30542); experiment: biochemical; settings: read-out: % Inhibition of Control Specific Binding
5-HT2A (h) = 5-HT2A (h) (Homo sapiens, UniProt P28223); experiment: biochemical; settings: read-out: % Inhibition of Control Specific Binding
alpha 2A (h) = alpha 2A (h) (Homo sapiens, UniProt P08913); experiment: biochemical; settings: read-out: % Inhibition of Control Specific Binding
GCN5L2 = GCN5L2 (Homo sapiens, UniProt Q92830); type: binding; settings: pH 7.5
D1 (h) = D1 (h) (Homo sapiens, UniProt P21728); experiment: biochemical; settings: read-out: % Inhibition of Control Specific Binding
5-HT1B = 5-HT1B (Rattus norvegicus, UniProt P28564); experiment: biochemical; settings: read-out: % Inhibition of Control Specific Binding
5-HT1A (h) = 5-HT1A (h) (Homo sapiens, UniProt P08908); experiment: biochemical; settings: read-out: % Inhibition of Control Specific Binding
TNF-alpha (h) = experiment: CEREP binding, agonist radioligand; parameters: species or system human
TAF1L(2) = biological target: T2, TAF1L(2) (Homo sapiens, UniProt Q8IZX4); type: binding
T2 construct: the second BRD of TAF1L [TAF1L(2); S2E]; made in house; host or cells: bacteria
T2 sequence (Q8IZX4 1517-1626 limits assumed): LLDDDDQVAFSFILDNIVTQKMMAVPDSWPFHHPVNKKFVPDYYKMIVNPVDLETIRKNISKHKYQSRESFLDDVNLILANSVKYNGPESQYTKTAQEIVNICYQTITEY

M1 (h) = M1 (h) (Homo sapiens, UniProt P11229); experiment: biochemical; settings: read-out: % Inhibition of Control Specific Binding
[2] = biological target: choline transporter (CHT1) (h) (Homo sapiens, UniProt Q9GZV3); experiment: biochemical; type: binding; settings: read-out: % Inhibition of Control Specific Binding
MC1 = MC1 (Mus musculus, UniProt Q01727); experiment: biochemical; settings: read-out: % Inhibition of Control Specific Binding
motilin (h) = motilin (h) (Homo sapiens, UniProt O43193); experiment: biochemical; type: binding; settings: read-out: % Inhibition of Control Specific Binding
TAF1(2) = biological target: T3, TAF1(2) (Homo sapiens, UniProt P21675); type: binding
T3 construct: Human BRDs were subcloned into bacteria-expressing vectors; made in house; host or cells: bacteria
T3 sequence (P21675 1519-1628 limits assumed): T2 sequence (Q8IZX4 1517-1626 limits assumed) with M46V, V51M, I102V, I107L

FP (h) = FP (h) (Homo sapiens, UniProt P43088); experiment: biochemical; settings: read-out: % Inhibition of Control Specific Binding
H3 (h) = H3 (h) (Homo sapiens, UniProt Q9Y5N1); experiment: biochemical; settings: read-out: % Inhibition of Control Specific Binding
AT2 (h) = AT2 (h) (Homo sapiens, UniProt P50052); experiment: biochemical; settings: read-out: % Inhibition of Control Specific Binding
PCP = type: binding
[3] = biological target: full-length GFP-tagged BRD9 in U2OS cells (Homo sapiens, UniProt Q9H8M2); type: cell-based
BRD2(1) = BRD2(1) (Homo sapiens, UniProt P25440)
A2A (h) = A2A (h) (Homo sapiens, UniProt P29274); experiment: biochemical; settings: read-out: % Inhibition of Control Specific Binding
TAF1L(1) = TAF1L(1) (Homo sapiens, UniProt Q8IZX4)
BRD2(2) = BRD2(2) (Homo sapiens, UniProt P25440)
BPTF = BPTF (Homo sapiens, UniProt Q12830); type: binding
B2 (h) = B2 (h) (Homo sapiens, UniProt P30411); experiment: biochemical; settings: read-out: % Inhibition of Control Specific Binding
sst4 (h) = sst4 (h) (Homo sapiens, UniProt P31391); experiment: biochemical; settings: read-out: % Inhibition of Control Specific Binding
CB1 (h) = CB1 (h) (Homo sapiens, UniProt P21554); experiment: biochemical; settings: read-out: % Inhibition of Control Specific Binding
K562 = type: cell-based, human
A2B (h) = A2B (h) (Homo sapiens, UniProt P29275); experiment: biochemical; settings: read-out: % Inhibition of Control Specific Binding
[4] = test system: Ca2+ channel (L, verapamil site) (phenylalkylamine); type: binding

Sequence of TAF1L(1) (Q8IZX4 1395-1503): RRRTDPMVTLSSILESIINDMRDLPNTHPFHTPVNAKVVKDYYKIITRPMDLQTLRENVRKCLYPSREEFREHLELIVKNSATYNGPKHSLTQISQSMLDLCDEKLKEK
Sequence of BRD2(1) (P25440 74-180 limits assumed): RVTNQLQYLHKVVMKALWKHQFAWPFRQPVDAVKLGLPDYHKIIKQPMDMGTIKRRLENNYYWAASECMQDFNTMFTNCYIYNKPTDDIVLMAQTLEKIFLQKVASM
Sequence of BRD2(2) (P25440 344-453 limits assumed): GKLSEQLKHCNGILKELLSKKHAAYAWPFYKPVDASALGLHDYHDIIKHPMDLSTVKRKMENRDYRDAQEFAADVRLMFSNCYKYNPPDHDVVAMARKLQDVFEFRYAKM
Sequence of H3 (h) (Q9Y5N1 whole entry): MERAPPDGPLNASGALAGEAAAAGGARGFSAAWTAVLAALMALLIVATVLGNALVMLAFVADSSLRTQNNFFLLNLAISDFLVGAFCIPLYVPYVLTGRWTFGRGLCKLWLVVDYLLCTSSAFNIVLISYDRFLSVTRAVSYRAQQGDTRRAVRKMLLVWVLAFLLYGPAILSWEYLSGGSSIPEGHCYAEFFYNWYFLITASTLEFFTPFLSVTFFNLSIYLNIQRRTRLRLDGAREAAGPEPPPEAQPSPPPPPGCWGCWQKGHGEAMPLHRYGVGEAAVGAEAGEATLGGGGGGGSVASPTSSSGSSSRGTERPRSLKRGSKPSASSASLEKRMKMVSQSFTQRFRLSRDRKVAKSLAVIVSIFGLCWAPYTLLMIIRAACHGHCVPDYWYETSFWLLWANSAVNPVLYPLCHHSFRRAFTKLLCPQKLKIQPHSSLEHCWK
Sequence of full-length GFP-tagged BRD9 in U2OS cells (Q9H8M2 whole entry): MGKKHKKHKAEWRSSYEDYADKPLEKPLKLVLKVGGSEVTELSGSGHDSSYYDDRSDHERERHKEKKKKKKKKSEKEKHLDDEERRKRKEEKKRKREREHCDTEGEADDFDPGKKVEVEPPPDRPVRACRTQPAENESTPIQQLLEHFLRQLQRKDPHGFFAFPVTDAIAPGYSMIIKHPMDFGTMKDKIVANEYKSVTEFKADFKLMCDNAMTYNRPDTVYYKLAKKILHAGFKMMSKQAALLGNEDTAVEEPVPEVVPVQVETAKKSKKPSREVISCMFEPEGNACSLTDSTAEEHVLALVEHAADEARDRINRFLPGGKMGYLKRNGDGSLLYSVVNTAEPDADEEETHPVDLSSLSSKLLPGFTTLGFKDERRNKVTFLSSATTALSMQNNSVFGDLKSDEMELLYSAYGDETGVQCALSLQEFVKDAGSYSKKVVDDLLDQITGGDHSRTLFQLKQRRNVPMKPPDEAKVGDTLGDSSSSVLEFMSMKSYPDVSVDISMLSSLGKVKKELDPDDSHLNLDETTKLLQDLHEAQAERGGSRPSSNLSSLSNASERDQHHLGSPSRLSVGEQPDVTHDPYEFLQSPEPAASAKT
Sequence of A2A (h) (P29274 whole entry): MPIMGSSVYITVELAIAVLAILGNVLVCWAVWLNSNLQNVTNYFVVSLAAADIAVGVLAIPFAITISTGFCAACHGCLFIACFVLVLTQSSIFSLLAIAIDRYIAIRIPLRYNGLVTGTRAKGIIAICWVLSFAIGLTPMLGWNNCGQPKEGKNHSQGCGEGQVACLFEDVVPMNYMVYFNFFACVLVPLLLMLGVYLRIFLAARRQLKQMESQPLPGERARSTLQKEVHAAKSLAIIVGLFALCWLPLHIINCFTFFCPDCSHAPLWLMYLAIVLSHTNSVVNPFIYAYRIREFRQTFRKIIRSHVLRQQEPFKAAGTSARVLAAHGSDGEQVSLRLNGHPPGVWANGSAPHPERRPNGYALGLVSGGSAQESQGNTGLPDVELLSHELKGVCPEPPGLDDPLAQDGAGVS
Sequence of A1 (h) (P30542 whole entry): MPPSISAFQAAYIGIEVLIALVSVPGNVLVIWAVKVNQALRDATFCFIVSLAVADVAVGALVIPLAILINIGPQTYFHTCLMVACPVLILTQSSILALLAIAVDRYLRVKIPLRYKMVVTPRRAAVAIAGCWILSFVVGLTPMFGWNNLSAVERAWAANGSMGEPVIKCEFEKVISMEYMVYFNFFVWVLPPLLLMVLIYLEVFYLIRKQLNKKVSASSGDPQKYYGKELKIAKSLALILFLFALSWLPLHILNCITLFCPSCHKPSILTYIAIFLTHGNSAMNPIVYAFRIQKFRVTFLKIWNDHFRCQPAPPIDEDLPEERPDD
Sequence of GCN5L2 (Q92830 728-832): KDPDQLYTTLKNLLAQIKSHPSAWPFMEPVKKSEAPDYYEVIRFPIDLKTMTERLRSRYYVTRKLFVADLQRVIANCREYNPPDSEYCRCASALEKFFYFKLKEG
Sequence of sst4 (h) (P31391 whole entry): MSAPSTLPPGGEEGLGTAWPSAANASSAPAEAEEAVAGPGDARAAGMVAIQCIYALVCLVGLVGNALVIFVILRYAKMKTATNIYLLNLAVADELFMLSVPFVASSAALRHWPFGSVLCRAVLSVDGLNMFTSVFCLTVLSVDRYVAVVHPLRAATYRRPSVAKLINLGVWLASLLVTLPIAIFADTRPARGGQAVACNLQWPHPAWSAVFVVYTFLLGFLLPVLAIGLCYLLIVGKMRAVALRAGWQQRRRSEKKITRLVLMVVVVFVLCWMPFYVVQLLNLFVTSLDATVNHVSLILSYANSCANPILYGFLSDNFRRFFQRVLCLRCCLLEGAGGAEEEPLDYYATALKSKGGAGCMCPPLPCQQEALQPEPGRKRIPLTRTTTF
Sequence of A2B (h) (P29275 whole entry): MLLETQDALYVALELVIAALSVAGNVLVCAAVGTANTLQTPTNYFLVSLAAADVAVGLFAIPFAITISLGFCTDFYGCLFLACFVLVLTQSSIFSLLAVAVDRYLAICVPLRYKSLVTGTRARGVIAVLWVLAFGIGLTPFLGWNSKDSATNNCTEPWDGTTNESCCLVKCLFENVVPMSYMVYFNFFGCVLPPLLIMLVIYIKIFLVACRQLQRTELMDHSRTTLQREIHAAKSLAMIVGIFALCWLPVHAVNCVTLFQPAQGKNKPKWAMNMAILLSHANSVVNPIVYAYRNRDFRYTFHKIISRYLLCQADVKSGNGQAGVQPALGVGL
Sequence of 5-HT3 (h) (P46098 24-478): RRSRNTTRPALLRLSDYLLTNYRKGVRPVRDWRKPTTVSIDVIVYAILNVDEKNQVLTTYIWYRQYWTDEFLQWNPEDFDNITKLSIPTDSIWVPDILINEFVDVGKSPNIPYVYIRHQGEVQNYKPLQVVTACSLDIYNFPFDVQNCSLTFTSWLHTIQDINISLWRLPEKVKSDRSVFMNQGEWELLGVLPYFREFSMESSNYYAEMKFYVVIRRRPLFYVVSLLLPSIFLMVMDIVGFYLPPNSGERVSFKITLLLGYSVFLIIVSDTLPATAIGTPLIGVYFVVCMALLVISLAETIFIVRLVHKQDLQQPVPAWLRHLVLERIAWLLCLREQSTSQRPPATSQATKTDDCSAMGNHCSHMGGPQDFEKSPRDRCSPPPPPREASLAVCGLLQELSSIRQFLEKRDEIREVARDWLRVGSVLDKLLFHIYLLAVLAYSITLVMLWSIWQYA
Sequence of AT2 (h) (P50052 whole entry): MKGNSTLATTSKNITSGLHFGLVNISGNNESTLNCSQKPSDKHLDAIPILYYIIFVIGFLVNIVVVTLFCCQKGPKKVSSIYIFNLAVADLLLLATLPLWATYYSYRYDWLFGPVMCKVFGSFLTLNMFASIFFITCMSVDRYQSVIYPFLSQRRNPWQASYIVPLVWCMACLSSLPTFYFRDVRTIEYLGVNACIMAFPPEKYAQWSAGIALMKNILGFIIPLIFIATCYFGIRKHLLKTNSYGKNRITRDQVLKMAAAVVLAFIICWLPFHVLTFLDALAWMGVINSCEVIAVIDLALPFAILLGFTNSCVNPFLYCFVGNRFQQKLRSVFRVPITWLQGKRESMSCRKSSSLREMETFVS
Sequence of 5-HT1A (h) (P08908 whole entry): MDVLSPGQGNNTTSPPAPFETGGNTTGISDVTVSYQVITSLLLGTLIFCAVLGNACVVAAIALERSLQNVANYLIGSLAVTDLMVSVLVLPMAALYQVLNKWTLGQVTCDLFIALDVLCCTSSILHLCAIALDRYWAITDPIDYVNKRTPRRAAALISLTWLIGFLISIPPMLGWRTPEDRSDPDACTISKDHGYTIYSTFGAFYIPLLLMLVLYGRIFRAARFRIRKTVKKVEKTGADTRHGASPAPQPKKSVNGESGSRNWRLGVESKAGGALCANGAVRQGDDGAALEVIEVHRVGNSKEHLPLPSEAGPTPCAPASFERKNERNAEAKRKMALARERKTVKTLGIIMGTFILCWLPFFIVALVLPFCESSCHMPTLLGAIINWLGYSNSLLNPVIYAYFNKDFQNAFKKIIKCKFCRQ
Sequence of 5-HT1B (P28564 whole entry): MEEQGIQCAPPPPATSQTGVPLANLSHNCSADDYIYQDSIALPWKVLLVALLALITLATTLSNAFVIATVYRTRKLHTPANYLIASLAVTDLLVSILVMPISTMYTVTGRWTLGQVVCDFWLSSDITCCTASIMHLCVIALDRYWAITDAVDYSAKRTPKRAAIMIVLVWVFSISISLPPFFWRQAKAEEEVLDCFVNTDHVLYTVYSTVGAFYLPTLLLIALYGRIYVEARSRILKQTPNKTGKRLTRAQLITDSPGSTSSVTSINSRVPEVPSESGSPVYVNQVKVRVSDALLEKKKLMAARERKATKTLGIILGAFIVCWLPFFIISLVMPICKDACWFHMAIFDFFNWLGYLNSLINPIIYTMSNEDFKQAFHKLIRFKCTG

## CCOC(=O)Nc1cc(-c2ccc(C)c(NS(C)(=O)=O)c2)nn2c(C)nnc12 [BSP, ethyl (3-methyl-6-(4-methyl-3-(methylsulfonamido)phenyl)-[1,2,4]triazolo[4,3-b]pyridazin-8-yl)carbamate]
5-HT3 (h)
  inhibition at 10 µM: 3%
TIF1A
  N: 1.09 ± 0.029
  TΔS: 4.06 kcal/mol
  ΔG: -6.67 kcal/mol
  ΔH^obs: -2.61 ± 0.088 kcal/mol
V1a (h)
  inhibition at 10 µM: -6%
[1]
  colony formation: decreased; also recorded: severely inhibited
A1 (h)
  inhibition at 10 µM: 30%
5-HT2A (h)
  inhibition at 10 µM: 17%
Alpha 2A (h)
  inhibition at 10 µM: 7%
GCN5L2
  KD: Weak binding
D1 (h)
  inhibition at 10 µM: -13%
5-HT1B
  inhibition at 10 µM: -13%
5-HT1A (h)
  inhibition at 10 µM: -11%
TNF-alpha (h)
  % Inhibition of Control Specific Binding: -7
TAF1L(2)
  N: 0.99 ± 0.003
  TΔS: -2.76 kcal/mol
  ΔG: -9.72 kcal/mol
  ΔH^obs: -12.48 ± 0.069 kcal/mol
M1 (h)
  inhibition at 10 µM: 39%
[2]
  inhibition at 10 µM: 39%
MC1
  inhibition at 10 µM: 2%
Motilin (h)
  inhibition at 10 µM: 7%
TAF1(2)
  N: 0.98 ± 0.003
  TΔS: -3.80 kcal/mol
  ΔG: -10.25 kcal/mol
  ΔH^obs: -14.05 ± 0.095 kcal/mol
FP (h)
  inhibition at 10 µM: 5%
H3 (h)
  inhibition at 10 µM: 1%
AT2 (h)
  inhibition at 10 µM: 2%
PCP
  % Inhibition of Control Specific Binding: -6
[3]
  FRAP, chromatin interaction of BRD9: displacement of proteins from chromatin
BRD2(1)
  N: 1.00 ± 0.003
  TΔS: 1.34 kcal/mol
  ΔG: -9.25 kcal/mol
  ΔH^obs: -7.90 ± 0.034 kcal/mol
A2A (h)
  inhibition at 10 µM: 68%
TAF1L(1)
  N: 1.00 ± 0.146
  TΔS: 1.29 kcal/mol
  ΔG: -6.07 kcal/mol
  ΔH^obs: -4.78 ± 0.778 kcal/mol
BRD2(2)
  N: 1.10 ± 0.003
  TΔS: 4.18 kcal/mol
  ΔG: -9.64 kcal/mol
  ΔH^obs: -5.46 ± 0.028 kcal/mol
BPTF
  N: 1.07 ± 0.005
  TΔS: -3.28 kcal/mol
  ΔH^obs: -10.09 ± 0.074 kcal/mol
B2 (h)
  inhibition at 10 µM: -1%
sst4 (h)
  inhibition at 10 µM: 19%
CB1 (h)
  inhibition at 10 µM: -34%
K562
  effect on cell cycle: little effect on cell cycle
A2B (h)
  inhibition at 10 µM: -5%
[4]
  % Inhibition of Control Specific Binding: -8

From paper PMC5061470, “Promiscuous targeting of bromodomains by bromosporine identifies BET proteins as master regulators of primary transcription response in leukemia” (Science Advances, 2016)
